Measured values: patent US9815783B2, “(3-alkylthio)propenoic acid-derived compounds and their application in cosmetics” (EXSYMOL, priority 2015, dated 2017)
Blank lines part the entries; values can stand above or below the compound they belong to.

Key:
[1] = Antioxidant potential against squalene hydroperoxidation by singlet oxygen (quenching, methylene blue, UV-B, HPLC); conditions: UV-B radiation dose 1.42 J·cm−2, methylene blue photosensitizer
Method: Experimentally, a squalene solution at 5 g/100 mL, a methylene blue solution at 5 mM and a solution of the compound according to the invention (from 1 to 5 mM) or a control compound (methylthiopropylamido acetyl methionine-AMDM) were prepared after being dissolved in 100 mL of methanol (HPLC grade). Then in a UV-B oven, each solution was poured in equal parts into an uncovered Petri dish, in order to be submitted to a radiation dose (1D) of 1.42 J·cm^−2. At the end of the radiation, volumes of the solutions were recovered, adjusted to 20 mL with methanol prior to analysis by HPLC assay and after removal of methylene blue. The “quenching,” rate was then deduced from the following equation: [formula]

[2] = Photo-isomerization of (Z)-isomer conjugates to E-isomer under UV-B irradiation (HPLC); format: physicochemical; conditions: 2.5 mM in methanol with squalene; UV-B irradiation dose 1 J·cm−2; formation of E-isomer by HPLC
Method: Test 4: Evidence of the Ability of the (Z)-Isomer Conjugates of Formula (I) to Absorb Ultraviolet Radiation by Photo-Isomerization
Principle: the aim is to check whether the conjugates according to the invention are able to isomerize under UV-B irradiation.
Experimentally, 2 ml of a squalene solution at 5 g/100 mL and 2 mL of a solution of compound according to the invention at the concentration of 25 mM in methanol were introduced into a 20 mL measuring cylinder, and then supplemented with methanol up to 20 mL. The preparation thus obtained was poured into a Petri dish onto which an irradiation dose of 1 J·cm^−2 was applied in a UV-B oven. At the end of the irradiation, the solutions were collected and analyzed by HPLC dosage. Volumes were previously standardized with methanol.
Chromatographic profiles were thus obtained, and the formation of the E-isomer was investigated. An isomerization rate was then determined by comparison with a control profile.

HaCaT keratinocytes [3] = assay: Viability of HaCaT keratinocytes exposed to UV-B cytotoxic doses (MTT method); format: cell-based; conditions: Homo sapiens, light or radiation study, UV-B 100 mJ/cm2, MTT after 24 hours, irradiated untreated control 46, non-irradiated 100, read-out: % cell viability; for viability at 100 µM: 0.1 mM in PBS; for viability at 250 µM: 0.25 mM in PBS; for viability at 500 µM: 0.5 mM in PBS
Method: Test 3: Evidence of the Ability of the (Z)-Isomer Conjugates of Formula (I) to Make Viable a Keratinocyte Cell Line Exposed to UV-B Cytotoxic Doses
Experimentally, the study was also carried out on a cell line of immortalized keratinocytes “HaCaT” seeded in 24-well plates at a rate of 8000 cells per square centimeter, namely 15200 cells per welkin 0.5 ml culture medium (with 10% foetal calf serum).
500 μl of the conjugate according to the invention were added in each well at a concentration from 0.05 to 0.5 mM in PBS. The cells in the presence of active ingredient were then exposed to ultraviolet radiations (UV-B) at the moderate dose of 100 mJ·cm−^2, and then placed into a medium without active ingredient for 24 hours. After removal of the medium, the HaCaT keratinocytes cell viability was also measured using the “MTT method” (solution at 250 μg/ml) and by spectrophotometry (absorbance at 570 nm). Gathering the average values obtained from three independent experiments, the results are presented in table 3 below, in comparison with those obtained for two controls, the non-irradiated cells and the non-treated irradiated cells with the conjugates according to the invention.

[4] = Opposition to trans-urocanic acid photo-induced isomerization (HPLC); conditions: compound 5 mM, irradiation dose 31 mJ·cm−2
Method: Test 5: Evidence of the Ability of the (Z)-Isomer Conjugates of Formula (I) to Oppose the Trans-Urocanic Acid Photo-Induced Isomerization
Principle: the aim is to check whether the conjugates according to the invention are capable of opposing the trans-urocanic acid photo-isomerization.
Experimentally, the study was carried out almost identically as in tests 1 and 4 above. Beforehand, it was checked that under defined experimental conditions, trans-urocanic acid generates a significant amount of cis-urocanic acid that can be measured by HPLC analysis. The irradiation dose (1D) was 31 mJ·cm^−2 for a compound concentration of 5 mM.

HaCaT keratinocytes [5] = assay: Cytotoxic potential of sulfoxide and sulfone oxidation by-products on HaCaT keratinocytes (MTT method); format: cell-based; conditions: 2.5 mM in PBS, average of three independent experiments, control = 100
Method: Test 2: Evidence of the Absence of Cytotoxic Potential of the Oxidation by-Products of the (Z)-Isomer Conjugates of Formula (I)
Experimentally, the test was carried out on a cell line of immortalized keratinocytes “HaCaT” maintained by subculture in a complete culture medium “DMEM” (with 10% foetal calf serum) in a humid atmosphere at 37° C. and 5% CO2. HaCaT cells were seeded in 24-well plates at the rate of 1·10^5 cells per well.
Sulfoxide and sulfone derivatives of (Z)-isomer conjugates of formula (I) were synthesized after a stoichiometric exposure to hydrogen peroxide (H2O2), then purified and finally quantified.
500 μl of sulfoxide and sulfone oxidation by-products from the conjugates according to the invention were added in each well, at the concentration of 2.5 mM in PBS. After removal of the medium, the HaCaT keratinocytes cell viability was measured using the “MTT method” (MTT standing for (4,5-dimethylthiazol-2-yl)-2,5-diphenyltetrazolium bromide) (solution at 500 μg/ml) and by spectrophotometry (absorbance at 550 nm). Expressed as the average values obtained from three independent experiments, the results are gathered in table 2 below, in comparison with those obtained for the non-irradiated cells.

Compound: CS/C=C/C(=O)NCCO [(E)-N-(2-hydroxyethyl)-3-(methylthio)propenamide]
% squalene protection ([1]; compound 1 mM in methanol): 71%

Compound: CS/C=C/C(=O)NCCc1ccc(O)cc1 [(E)-N-(4-hydroxyphenethyl)-3-(methylthio)propenamide]
% squalene protection ([1]; compound 1 mM in methanol): 30%

% isomerization [2]: 62%
Compound: CS/C=C\C(=O)NCCO [(Z)-N-(2-hydroxyethyl)-3-(methylthio)propenamide]
viability at 100 µM (HaCaT keratinocytes [3]): 64%
viability at 250 µM (HaCaT keratinocytes [3]): 85%
viability at 500 µM (HaCaT keratinocytes [3]): 94%
% squalene protection ([1]; compound 1 mM in methanol): 24%
% squalene protection ([1]; compound 5 mM in methanol): 25%
% inhibition of trans-urocanic acid photo-isomerization [4]: 75%

Compound: CS(=O)(=S)/C=C\C(=O)NCCO (stereo not shown) [(Z)-N-(2-hydroxyethyl)-3-(methylthiosulfonyl)propenamide]
% cell viability (HaCaT keratinocytes [5]): 93.1%

% isomerization [2]: 95%
Compound: CS/C=C\C(=O)NCCc1ccc(O)cc1 [(Z)-N-(4-hydroxyphenethyl)-3-(methylthio)propenamide]
viability at 100 µM (HaCaT keratinocytes [3]): 70%
viability at 250 µM (HaCaT keratinocytes [3]): 93%
viability at 500 µM (HaCaT keratinocytes [3]): 100%
% squalene protection ([1]; compound 1 mM in methanol): 35%
% squalene protection ([1]; compound 5 mM in methanol): 44%
% inhibition of trans-urocanic acid photo-isomerization [4]: 78%

Compound: CS(=O)(=S)/C=C\C(=O)NCCc1ccc(O)cc1 (stereo not shown) [(Z)-N-(4-hydroxyphenethyl)-3-(methylthiosulfonyl)propenamide]
% cell viability (HaCaT keratinocytes [5]): 95.0%

% isomerization [2]: 60%
Compound: CCNC(=O)/C=C\SC [(Z)-N-ethyl-3-(methylthio)propenamide]
viability at 500 µM (HaCaT keratinocytes [3]): 86%

Compound: CSCCCNC(=O)C(CCSC)NC(C)=O (stereo not shown) [AMDM, methylthiopropylamido acetyl methionine, reference compound]
% squalene protection ([1]; compound 1 mM in methanol): 3%
% squalene protection ([1]; compound 5 mM in methanol): 15%
